System: Amphistome ova
Experiment: Deworming in cows positive for Amphistome ova (ova checked from dung matter)
Type: in vivo
Conditions: before treatment (baseline)
Text: In one embodiment efficacy of diarylheptanoid metal complex on deworming in cows was studied. Cows positive for Amphistome ova were selected and treated with diarylheptanoid metal complex. Deworming in cows is important for several reasons. First, internal parasites or worms can cause significant harm to cow health and productivity. These parasites can cause damage to the cow's gastrointestinal tract, leading to reduced feed intake, weight loss, and poor growth rates. In severe cases, internal parasites can even lead to death. Second, internal parasites can also have economic impacts on the farm. Infected cows may have reduced milk production and lower-quality meat, which can lead to financial losses for the farmer. Third, internal parasites can also be a source of infection for other animals on the farm. Some parasites can be passed from cow to cow or from cow to other species such as sheep or goats. After 30 days of treatment with diarylheptanoid calcium complex, the number of Ova in the dung matter is nil compared to untreated control.
Twenty cows that were positive for Amphistome ova were selected for this study. Cows were grouped into four groups with 5 cows in each group. Cows were segregated as follows.
Before and after 30 days of treatment ova was checked from the dung matter.

CCCSc1ccc2nc(NC(=O)OC)[nH]c2c1 [Albendazole]
Ova Before: + + + + +

From patent US20250312291A1, “DIARYLHEPTANOID BASED MEDICINAL PREPARATION AND METHOD OF PREPARATION OF THE SAME” (ARJUNA NATURAL PRIVATE LIMITED, priority 2022, published 2025)
